One series has as its system CNTF. In words: Striatal CNTF levels by ELISA. The series is classed as in vivo, rat. Conditions: adult rats, oral 50 mg/kg/day for two months. How it is done: CNTF protein was determined with an ELISA that utilizes a monoclonal capture antibody which recognizes a non-C-terminal epitope on both rat and human CNTF (Regeneron, Tarrytown, N.Y.). The captured CNTF was recognized by a polyclonal rabbit anti-rCNTF reporter antibody. An alkaline phosphatase-tagged goat anti-rabbit IgG was used to generate the signal. In practice, 96-well Immulon plates were coated with capture antibody overnight, then blocked and washed. After overnight incubation of standards and samples, plates were washed and reporter antibody added. Following final washes, the reaction was developed using the GIBCO BRL ELISA amplification system substrate and amplifier. The reaction was stopped with 0.5 N H2SO4 and the plates read at two wavelengths (490 nm and 650 nm).
ARIs Toirestat and Ponalrestat were orally administered to adult rats at a dose of 50 mg/kg/day for two months as described in Example 1 and in Mizisin et al (1997) Diabetes 46: 647-652. For each rat, the left and right striatum were dissected and combined for homogenization in phosphate buffered saline. CNTF levels in extract preparations were then measured by ELISA, as described in Example 1. Four rats served as controls, and five rats each received Tolrestat and Ponalrestat. Five ELISA assays were run for each rat and one mean value derived for each rat.
(In an ELISA, binding on a coated surface is turned into a signal by an enzyme label.)

For series [1] the following is noted: Dittrich et al. (1994); cited from earlier work.

“Also recorded” adds a separate entry of the source.

As to `COc1ccc2c(C(=S)N(C)CC(=O)O)cccc2c1C(F)(F)F` [Tolrestat, N-[[6-methoxy-5-(trifluoromethyl)-1-naphthalenyl]thioxomethyl]-N-methylglycine], the “Increase in striatal CNTF activity level versus control group” value in the series on CNTF is on record as “significantly increased; also recorded: approximately two-fold”.

B1: CNTF: member of the neuropoietic cytokine family, a protein of 200 amino acids (protein, UniProt P26441 1-200, looked up)
Ciliary neurotrophic factor: MAFTEHSPLTPHRRDLCSRSIWLARKIRSDLTALTESYVKHQGLNKNINLDSADGMPVASTDQWSELTEAERLQENLQAYRTFHVLLARLLEDQQVHFTPTEGDFHQAIHTLLLQVAAFAYQIEELMILLEYKIPRNEADGMPINVGDGGLFEKKLWGLKVLQELSQWTVRSIHDLRFISSHQTGIPARGSHYIANNKKM
With B1, in series [1], the Plasma half-life was 2.9 min.

The record behind these values is patent publication US6696407B1, “Huntington's disease treatment comprising administering aldose reductase inhibitors to increase striatal CNTF” (The Regents of the University of California, priority 1997, dated 2004).
